Converted amounts (≈) assume the structure as drawn.
What was measured:
[1] = randomized open-label pharmacokinetic study of oral-mucosal tablets versus oral 8 mg tablet; format: in vivo, human; settings: for AUC(0-t) / Cmax: human serum, mean, N=6, measurement substance = label
Protocol: A randomized, open-label study to assess the pharmacokinetic parameters of an oral-mucosal tablet containing Compound A and its bioavailability relative to an oral 8 mg tablet containing Compound A was performed.
The test was conducted in two parts: (1) a parallel-group design to evaluate the pharmacokinetic parameters of 3 doses of Compound A (0.25, 0.5 and 1 mg) in oral-mucosal tablets and (2) an open-label, randomized 2-period crossover design to assess the relative bioavailability (pharmacokinetic profile) of the oral-mucosal 0.5 mg tablet compared with the bioavailability of the oral 8 mg tablet.
For part (1), a total of 18 subjects were randomly assigned to 1 of the 3 dosing regimens (i.e., 0.25, 0.5 and 1 mg; 6 subjects per dose) and each subject received a single dose of Compound A at the assigned dose.
For part (2), a total of 24 subjects were randomly assigned to take either the oral-mucosal 0.5 mg tablet or the oral 8 mg tablet at a single dose during each of the two periods.
To evaluate the studies, the pharmacokinetic parameters of Compound A and M-II were measured, including maximum observed serum concentration (Cmax) and area under the serum concentration-time curve from time 0 to the last quantifiable concentration (AUC(0-tlqc)).

[2] = test system: patients suffering from bipolar disorder; assay: acute depression in patients with bipolar disorder, double-blind randomized placebo-controlled trial (CGI-BP); format: in vivo, human; settings: oral 8 mg once daily up to 8 weeks; value below 0 favors Compound A; 95% CI; N=9; P value=0.001
solubility of compound A = format: physicochemical; settings: irrespective of pH
[3] = blood kinetics of unchanged form and active metabolite M-II after oral or sublingual administration to human (cross-over, open-label); format: in vivo; settings: for Cmax: serum, mean
Protocol: Oral preparation and preparation for oral-mucosal absorption were measured for blood kinetics of unchanged form and active metabolite M-II after oral or sublingual administration to human. The plasma concentration before administration, and 5 min, 10 min, 15 min, 20 min, 30 min, 45 min, 60 min, 90 min, 120 min, 180 min, 240 min, 360 min, 480 min, 600 min, 720 min and 1440 min after administration was measured.
To be specific, symbol/term and definition thereof in this table are explained in the following. The study was conducted by cross-over method under open-label condition.
AUC(0-tlqc): Area under the serum concentration-time curve from time 0 to time of the last quantifiable concentration (tlqc), calculated using the linear trapezoidal rule.
AUC(0-inf): Area under the serum concentration-time curve from time 0 to infinity, calculated as AUC(0-inf)=AUC(0-tlqc)+lqc/λz, where tlqc is the time of last quantifiable concentration and lqc is the last quantifiable concentration. λz: Terminal elimination rate constant, calculated as the negative of the slope of the log-linear regression of the natural logarithm concentration-time curve during the terminal phase. Cmax: Maximum observed serum concentration. Tmax: Time to reach Cmax. Active metaboline M-II: (2S)-2-Hydroxy-N-{2-[(8S)-1,6,7,8-tetrahydro-2H-indeno[5,4-b]furan-8-yl]ethyl}propanamide

[4] = test system: patients suffering from bipolar disorder and in the remission phase; assay: maintenance of remission phase in patients with bipolar disorder, double-blind randomized placebo-controlled trial; format: in vivo, human; settings: oral 8 mg once daily at bedtime
Protocol: Oral 8 mg formulation containing Compound A The test tablet was administered to a group of patients suffering from bipolar disorder and in the remission phase, once daily at bedtime for 6 months. A placebo was administered once daily at bedtime to a separate control group of patients in the remission phase of bipolar disorder for 6 months. This study was performed as a double-blind, randomized, placebo-controlled trial. The time from randomization to relapse over 6 months of treatment is determined by the Primary Investigator (PI) or defined by any of the following criteria: depression [Montgomery-Asberg Depression Rating Scale (MADRS) score ≧16]; mania/hypomania [Young Mania Rating Scale (YMRS) total score ≧14]; clinical global impressions bipolar version (CGI-BP); cumulative proportion of participants in each arm (placebo or Compound A) surviving without relapse [MADRS score ≧16 and YMRS total score ≧14], a medication initiation or change for manic/depressed/mixed symptoms, a hospitalization for manic/depressed/mixed symptoms and suicide risk or imminent risk of suicide.

[5] = single oral-mucosal tablet dose of Compound A 0.25 mg
[6] = single oral-mucosal tablet dose of Compound A 0.5 mg
[7] = single oral-mucosal tablet dose of Compound A 1 mg

C[C@H](O)C(=O)NCC[C@@H]1CCc2ccc3c(c21)CCO3 [M-II, (2S)-2-Hydroxy-N-{2-[(8S)-1,6,7,8-tetrahydro-2H-indeno[5,4-b]furan-8-yl]ethyl}propanamide]
AUC(0-t) [1, 5]: 4.64 ng·h/mL
Cmax [1, 5]: 1.85 ng/mL
AUC(0-t) [1, 6]: 10.5 ng·h/mL
Cmax [1, 6]: 3.74 ng/mL
AUC(0-t) [1, 7]: 20.2 ng·h/mL
Cmax [1, 7]: 7.68 ng/mL
fraction of exposure compared to the approved oral 8 mg tablet ([1]; oral-mucosal administration 0.5 mg): < 7%

CCC(=O)NCC[C@@H]1CCc2ccc3c(c21)CCO3 [compound A, (S)—N-[2-(1,6,7,8-tetrahydro-2H-indeno[5,4-b]furan-8-yl)ethyl]propionamide]
CGI-BP severity for depression, longitudinal analysis of change in outcome [2]: −0.1 (−0.16 to −0.05)
AUC(0-t) [1, 5]: 2.6 ng·h/mL
Cmax [1, 5]: 3.14 ng/mL
AUC(0-t) [1, 6]: 6.23 ng·h/mL
Cmax [1, 6]: 5.85 ng/mL
AUC(0-t) [1, 7]: 7.87 ng·h/mL
Cmax [1, 7]: 9.57 ng/mL
solubility (solubility of compound A): ~200 µg/mL (≈ 771 µM)
AUC(0-inf) unchanged/metabolite ratio ([3]; oral administration): 0.03
Cmax unchanged/metabolite ratio ([3]; oral administration): 0.07
Cmax ([3]; oral, dose 8 mg): 4.76 ± 5.19 ng/mL
Cmax ([3]; sublingual, dose 0.5 mg): 4.74 ng/mL
AUC(0-inf) unchanged/metabolite ratio ([3]; sublingual administration): 0.30
Cmax unchanged/metabolite ratio ([3]; sublingual administration): 1.13
Cumulative Proportion of Patients in each arm surviving without relapse ([4]; Baseline): 1.00
Cumulative Proportion of Patients in each arm surviving without relapse ([4]; Month 1): 0.929
Cumulative Proportion of Patients in each arm surviving without relapse ([4]; Month 2): 0.849
Cumulative Proportion of Patients in each arm surviving without relapse ([4]; Month 3): 0.716
Cumulative Proportion of Patients in each arm surviving without relapse ([4]; Month 4): 0.661
Cumulative Proportion of Patients in each arm surviving without relapse ([4]; Month 5): 0.632
Cumulative Proportion of Patients in each arm surviving without relapse ([4]; Month 6): 0.566

Source: US8642649B2, “Orally dispersible tablet” (Takeda Pharmaceutical Company Limited, priority 2011, dated 2014)
